In patent US20080261977A1, “Pyrimidine Derivatives as Cannabinoid Receptor Modulators” (priority 2004, published 2008):
Where a name gives a salt, the structure may show the parent alone. Read-outs that look alike come from different tables or passages of the source.

Target: T1, human cannabinoid CB2 receptor (Homo sapiens, UniProt P34972)
T1 construct: expressed in transfected cells; host or cells: Saccharomyces cerevisiae strain MMY23 (cassette integrated at the ura3 locus; chimeric Gpa1/Gαi3)
Experiment: Cannabinoid CB2 receptor agonist activity, yeast (Saccharomyces cerevisiae) cells expressing the receptor, FDGlu fluorescence
Type: cell-based
Conditions: for Emax: read-out: efficacy (Emax relative to HU210) at the cloned human cannabinoid CB2 receptor
Description: The cannabinoid CB2 receptor agonist activity of the compounds of formula (I) was determined in accordance with the following experimental method.
Yeast (Saccharomyces cerevisiae) cells expressing the human cannabinoid CB2 receptor were generated by integration of an expression cassette into the ura3 chromosomal locus of yeast strain MMY23. This cassette consisted of DNA sequence encoding the human CB2 receptor flanked by the yeast GPD promoter to the 5′ end of CB2 and a yeast transcriptional terminator sequence to the 3′ end of CB2. MMY23 expresses a yeast/mammalian chimeric G-protein alpha subunit in which the C-terminal 5 amino acids of Gpa1 are replaced with the C-terminal 5 amino acids of human Gαi3 (as described in Brown et al. (2000), Yeast 16:11-22). Cells were grown at 30° C. in liquid Synthetic Complete (SC) yeast media (Guthrie and Fink (1991), Methods in Enzymology, Vol. 194) lacking uracil, tryptophan, adenine and leucine to late logarithmic phase (approximately 6 OD600/ml).
Agonists were prepared as 10 mM stocks in DMSO. EC50 values (the concentration required to produce 50% maximal response) were estimated using dilutions of between 3- and 5-fold (BiomekFX, Beckman) into DMSO. Agonist solutions in DMSO (1% final assay volume) were transferred into black, clear bottom, microtitre plates from NUNC (96- or 384-well). Cells were suspended at a density of 0.2 OD600/ml in SC media lacking histidine, uracil, tryptophan, adenine and leucine and supplemented with 10 mM 3-aminotriazole, 0.1M sodium phosphate pH 7.0, and […] fluorescein di-β-D-glucopyranoside (FDGlu). This mixture (50 ul per well for 384-well plates, 200 ul per well for 96-well plates) was added to agonist in the assay plates (Multidrop 384, Labsystems). After incubation at 30° C. for 24 hours, fluorescence resulting from degradation of FDGlu to fluorescein due to exoglucanase, an endogenous yeast enzyme produced during agonist-stimulated cell growth, was determined using a Spectrofluor microtitre plate reader (Tecan; excitation wavelength: 485 nm; emission wavelength: 535 nm). Fluorescence was plotted against compound concentration and iteratively curve fitted using a four parameter fit to generate a concentration effect value. Efficacy (Emax) was calculated from the equation
Emax=Max[compound X]−Min[compound X]/Max[HU210]−Min[HU210]×100%
where Max[compound X] and Min[compound X] are the fitted maximum and minimum respectively from the concentration effect curve for compound X, and Max[HU210] and Min[HU210] are the fitted maximum and minimum respectively from the concentration effect curve for (6aR,10aR)-3-1,1′-Dimethylheptyl)-6a,7,10,10a-tetrahydro-1-hydroxy-6,6-dimethyl-6H-dibenzo[b,d]pyran-9-methanol (HU210; available from Tocris). Equieffective molar ratio (EMR) values were calculated from the equation
Where EC50[compound X] is the EC50 of compound X and EC50[HU210] is the EC50 of HU210.

[1] = yeast agonist assay, read-out: EC50 at the cloned human cannabinoid CB2 receptor

T1 sequence (P34972 whole entry): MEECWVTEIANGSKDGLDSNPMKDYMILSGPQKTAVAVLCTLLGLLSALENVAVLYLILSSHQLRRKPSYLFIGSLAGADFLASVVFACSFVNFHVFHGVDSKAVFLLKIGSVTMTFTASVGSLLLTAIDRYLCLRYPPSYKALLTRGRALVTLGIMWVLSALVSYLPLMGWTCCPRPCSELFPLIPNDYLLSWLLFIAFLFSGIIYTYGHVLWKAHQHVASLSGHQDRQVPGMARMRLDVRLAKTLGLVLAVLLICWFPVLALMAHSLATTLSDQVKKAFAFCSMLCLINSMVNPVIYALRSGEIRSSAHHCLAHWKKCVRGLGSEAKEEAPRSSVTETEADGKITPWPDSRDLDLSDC

## CC(C)(C)c1nc(Nc2cccc(Cl)c2)ncc1CN1CCOCC1 [Example 97, (4-tert-Butyl-5-morpholin-4-ylmethyl-pyrimidin-2-yl)-(3-chloro-phenyl)-amine hydrochloride]
[1]
  EC50: < 300 nM
Yeast agonist assay
  Emax: > 50%

## CC(C)CNCc1cnc(Nc2cccc(Cl)c2)nc1C(C)(C)C [Example 102, (4-tert-Butyl-5-(isobutylamino-methyl)-pyrimidin-2-yl]-(3-chloro-phenyl)-aminehydrochloride]
[1]
  EC50: < 300 nM
Yeast agonist assay
  Emax: > 50%

## CC(C)CNCc1cnc(Nc2cccc(Cl)c2)nc1C1CC1 [Example 5, (3-Chloro-phenyl)-[4-cyclopropyl-5-(isobutylamino-methyl)-pyrimidin-2-yl]-amine]
[1]
  EC50: < 300 nM
Yeast agonist assay
  Emax: > 50%

## FC(F)(F)c1nc(Nc2cccc(Cl)c2)ncc1CNC1CCCCC1 [Example 43, (3-Chlorophenyl)-(5-cyclohexylaminomethyl-4-trifluoromethyl-pyrimidin-2-yl)-amine]
  EC50: 300 to 1000 nM
  Emax: > 50%

## COCCN(CCOC)Cc1cnc(Nc2cccc(Cl)c2)nc1C(F)(F)F [Example 83, (5-{[Bis-(2-methoxy-ethyl)-amino]-methyl}-4-trifluoromethyl-pyrimidin-2-yl)-(3-chlorophenyl)-amine]
  potency or efficacy at the CB2 receptor (in words): no appreciable potency or efficacy
Listed as (5-{[Bis-(2-methoxy-ethyl)-amino]-methyl}-4-trifluoromethyl-pyrimidin-2-yl)-(3-c)
  potency or efficacy at the CB2 receptor (in words): do not appear to have any potency or efficacy

## CC(C)CNCc1cnc(Nc2ccc(Cl)cc2Cl)nc1C(F)(F)F [Example 27, (2,4-Dichlorophenyl)-{5-[(isobutylamino)-methyl]-4-trifluoromethyl-pyrimidin-2yl}-amine]
  EC50: < 300 nM
  Emax: > 50%

## CC(C)CNCc1cnc(Nc2cccc(C#N)c2)nc1C(F)(F)F [Example 59, (3-Cyanophenyl)-{5-[(isobutylamino)-methyl]-4-trifluoromethyl-pyrimidin-2yl}-amine, formate]
  Emax: > 50%
[1]
  EC50: 300 to 1000 nM

## CC(c1cnc(Nc2cccc(Cl)c2)nc1C(F)(F)F)N1CCOCC1 (centres unmarked) [Example 93, (3-Chlorophenyl)-[5-(1-morpholin-4-yl-ethyl)-4-trifluoromethyl-pyrimidin-2-yl]-amine]
  EC50: < 300 nM
  Emax: > 50%

## CC(C)(C)c1nc(Nc2cccc(Cl)c2)ncc1CNCc1ccc(F)cc1 [Example 100, (4-tert-Butyl-5-[(4-fluoro-benzylamino)-methyl]-pyrimidin-2-yl}-(3-chloro-phenyl)-amine hydrochloride]
[1]
  EC50: < 300 nM
Yeast agonist assay
  Emax: > 50%

## CC(C)(C)c1nc(Nc2cccc(Cl)c2)ncc1CNCC1CC1 [Example 103, (4-tert-Butyl-5-[(cyclopropylmethyl-amino)-methyl]-pyrimidin-2-yl}-(3-chloro-phenyl)-aminehydrocholoride]
[1]
  EC50: < 300 nM
Yeast agonist assay
  Emax: > 50%

## FC(F)(F)c1nc(Nc2cccc(Cl)c2)ncc1CN1CCCCC1 [Example 39, (3-Chlorophenyl)-(5-piperidin-1-ylmethyl-4-trifluoromethyl-pyrimidin-2-yl)-amine,formate]
  Emax: > 50%
[1]
  EC50: 300 to 1000 nM

## CC(C)CNC(C)c1cnc(Nc2cccc(F)c2)nc1C(F)(F)F (centres unmarked) [Example 87, (3-Fluorophenyl)-[5-(1-isobutylamino-ethyl)-4-trifluoromethyl-pyrimidin-2-yl]-amine]
[1]
  EC50: < 300 nM
Yeast agonist assay
  Emax: > 50%

## CC(NCC1CCOCC1)c1cnc(Nc2cccc(Cl)c2)nc1C(F)(F)F (centres unmarked) [Example 88, (3-Chlorophenyl)-(5-{1-[(tetrahydro-pyran-4-ylmethyl)-amino]-ethyl}-4-trifluoromethyl-pyrimidin-2-yl)-amine, formate]
[1]
  EC50: < 300 nM
Yeast agonist assay
  Emax: > 50%

## CN(Cc1cnc(Nc2cccc(Cl)c2)nc1C(F)(F)F)CC1CCC1 [Example 51]
  Emax: > 50%
[1]
  EC50: 300 to 1000 nM

## N#Cc1cccc(Nc2ncc(CNC3CC3)c(C(F)(F)F)n2)c1 [Example 58, (3-Cyanophenyl)-(5-cyclopropylaminomethyl-4-trifluoromethyl-pyrimidin-2-yl)-amine,formate]
  Emax: > 50%
[1]
  EC50: 300 to 1000 nM

## CCCCN(C)Cc1cnc(Nc2cccc(Cl)c2)nc1C(F)(F)F [Example 47, {5-[(Butyl-methyl-amino)-methyl]-4-trifluoromethyl-pyrimidin-2-yl}-(3-chlorophenyl)-amine]
  Emax: > 50%
[1]
  EC50: 300 to 1000 nM

## CC(C)c1nc(Nc2cccc(Cl)c2)ncc1CNCC1CCCC1 [Example 8, (3-Chloro-phenyl)-{5-[(cyclopentylmethyl-amino)-methyl]-4-isopropyl-pyrimidin-2-yl}-amine hydrochloride]
[1]
  EC50: < 300 nM
Yeast agonist assay
  Emax: > 50%

## O=S1(=O)CCC(NCc2cnc(Nc3cccc(Cl)c3)nc2C(F)(F)F)CC1 [Example 26, (3-Chlorophenyl)-{5-[(1,1-dioxo-hexahydro-1l^6-thiopyran-4-ylamino)-methyl]-4-trifluoromethyl-pyrimidin-2-yl}-amine, formate]
  Emax: > 50%
[1]
  EC50: < 300 nM

## CC(C)CCNCc1cnc(Nc2cccc(F)c2)nc1C(F)(F)F [Example 55, (3-Fluorophenyl)-{5-[(3-methylbutylamino)-methyl]-4-trifluoromethyl-pyrimidin-2-yl}-amine]
  Emax: > 50%
[1]
  EC50: 300 to 1000 nM

## CC(C)c1nc(Nc2cccc(Cl)c2)ncc1CNCC1CC1 [Example 7, (3-Chloro-phenyl)-{5-[(cyclopropylmethyl-amino)-methyl]-4-isopropyl-pyrimidin-2-yl}-amine hydrochloride]
[1]
  EC50: < 300 nM
Yeast agonist assay
  Emax: > 50%

## Fc1cc(CNCc2cnc(Nc3cccc(Cl)c3)nc2C(F)(F)F)ccn1 [Example 96, (3-Chlorophenyl)-(5-{[(2-fluoropyridin-4-ylmethyl)amino]-methyl}-4-trifluoromethyl-pyrimidin-2yl}-amine, formate]
  Emax: > 50%
[1]
  EC50: 300 to 1000 nM

## CC(C)CNCc1cnc(Nc2cccc(Cl)c2)nc1C(F)(F)F [Example 11, (3-Chlorophenyl){5-[(isobutylamino)-methyl]-4-trifluoromethyl-pyrimidin-2yl}-amine, formate]
[1]
  EC50: < 300 nM
Yeast agonist assay
  Emax: > 50%

## FC(F)(F)c1nc(Nc2cccc(Cl)c2)ncc1CNC[C@H]1CCCO1 [Example 49, (3-Chlorophenyl)-(5-{[[(2R)-tetrahydro-furan-2-ylmethyl]-amino]-methyl}-4-trifluoromethyl-pyrimidin-2-yl)-amine,formate]
  Emax: > 50%
[1]
  EC50: 300 to 1000 nM

## CC(C)CNCc1cnc(Nc2cccc(F)c2)nc1C(F)(F)F [Example 36, (3-Fluorophenyl)-{5-[(isobutylamino)-methyl]-4-trifluoromethyl-pyrimidin-2yl}-amine, formate]
[1]
  EC50: < 300 nM
Yeast agonist assay
  Emax: > 50%

## Fc1cccc(Nc2ncc(CNC3CC3)c(C(F)(F)F)n2)c1 [Example 38, (3-Fluorophenyl)-(5-cyclopropylaminomethyl-4-trifluoromethyl-pyrimidin-2-yl)-amine]
[1]
  EC50: < 300 nM
Yeast agonist assay
  Emax: > 50%

## CC(C)(C)CNCc1cnc(Nc2cccc(Cl)c2)nc1C(F)(F)F [Example 20, (3-Chlorophenyl)-{5-[(2,2-dimethylpropylamino)-methyl]-4-trifluoromethyl-pyrimidin-2-yl}-amine]
  EC50: < 300 nM
  Emax: > 50%

## CCC(C)NCc1cnc(Nc2cccc(Cl)c2)nc1C(F)(F)F (centres unmarked) [Example 48, [5-(sec-Butylamino-methyl)-4-trifluoromethyl-pyrimidin-2-yl]-(3-chloro-phenyl)-amine, formate]
  Emax: > 50%
[1]
  EC50: 300 to 1000 nM

## FC(F)(F)c1nc(Nc2cccc(Cl)c2)ncc1CNC1CCC1 [Example 21, (3-Chlorophenyl)-(5-cyclobutylaminomethyl-4-trifluoromethyl-pyrimidin-2-yl)-amine]
  EC50: < 300 nM
  Emax: > 50%
